From PMC7377239, “Cardiovascular Effects of Polychlorinated Biphenyls and Their Major Metabolites” (Environmental Health Perspectives, 2020)
Read-outs that look alike come from different tables or passages of the source.

System: iCell cardiomyocytes (human iPSC-derived cardiomyocytes)
Assay: High-content imaging of cytotoxicity and mitochondrial integrity in iPSC-CMs
Type: cell-based
Conditions: Homo sapiens; for viability at 0.01 µM / activity at 0.01 µM / viability at 0.1 µM / activity at 0.1 µM / viability at 1 µM / activity at 1 µM / viability at 10 µM / activity at 10 µM / viability at 100 µM / activity at 100 µM: Cardiomyocyte, 0.00 µM = 100.00; for viability at 0.1 µM / activity at 0.1 µM: 0.10 µM; for minimal effective concentration: iPSC-CM
Summary of the method: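 Human iPSC-derived cardiomyocytes were seeded on gelatin-coated 384-well plates at 5,000 cells per well and maintained for 12 d. Test chemicals were added as 10μL of 5× solutions to final concentrations of 0.01 to 100μM. Cells were stained with Hoechst 33342 and MitoTracker™ Orange, fixed in formaldehyde, and imaged by confocal high-content microscopy at 10× magnification.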

## COc1ccc(-c2cccc(Cl)c2)cc1Cl [4-OMe PCB11]
1.5 h, read-out: cm.cam.90min
  viability at 0.01 µM: 89.1%
  viability at 0.1 µM: 101%
  viability at 1 µM: 96.5%
  viability at 10 µM: 99.9%
  viability at 100 µM: 3.43%
1.5 h, read-out: cm.mii.90min
  activity at 0.01 µM: 112%
  activity at 0.1 µM: 93.8%
  activity at 1 µM: 94.7%
  activity at 10 µM: 109%
  activity at 100 µM: 74.3%
1.5 h, read-out: cm.mito.90min
  activity at 0.01 µM: 87.5%
  activity at 0.1 µM: 101%
  activity at 1 µM: 96.6%
  activity at 10 µM: 100%
  activity at 100 µM: 2.03%
1.5 h, read-out: cm.tc.90min
  viability at 0.01 µM: 89.6%
  viability at 0.1 µM: 101%
  viability at 1 µM: 96.7%
  viability at 10 µM: 100%
  viability at 100 µM: 3.76%
24 h, read-out: cm.cam.24hrs
  viability at 0.01 µM: 95.2%
  viability at 0.1 µM: 102%
  viability at 1 µM: 95.3%
  viability at 10 µM: 102%
  viability at 100 µM: 2.29%
24 h, read-out: cm.mii.24hrs
  activity at 0.01 µM: 95.8%
  activity at 0.1 µM: 88.6%
  activity at 1 µM: 107%
  activity at 10 µM: 85.8%
  activity at 100 µM: 34.1%
24 h, read-out: cm.mito.24hrs
  activity at 0.01 µM: 97.8%
  activity at 0.1 µM: 104%
  activity at 1 µM: 93.6%
  activity at 10 µM: 103%
  activity at 100 µM: 0.46%
24 h, read-out: cm.tc.24hrs
  viability at 0.01 µM: 97.4%
  viability at 0.1 µM: 103%
  viability at 1 µM: 95.6%
  viability at 10 µM: 103%
  viability at 100 µM: 2.4%
1.5 h, read-out: cm.cam.90min POD
  minimal effective concentration: 33.8 µM
1.5 h, read-out: cm.mii.90min POD
  minimal effective concentration: 62.2 µM
1.5 h, read-out: cm.mito.90min POD
  minimal effective concentration: 29.1 µM
1.5 h, read-out: cm.tc.90min POD
  minimal effective concentration: 28.6 µM
24 h, read-out: cm.cam.24hrs POD
  minimal effective concentration: 37.2 µM
24 h, read-out: cm.mii.24hrs POD
  minimal effective concentration: 10.8 µM
24 h, read-out: cm.mito.24hrs POD
  minimal effective concentration: 31.1 µM
24 h, read-out: cm.tc.24hrs POD
  minimal effective concentration: 33.4 µM
